One data set addresses T1, ACC1 (Homo sapiens, UniProt Q13085).
T1 construct: purchased BPS bioscience
The data set is described as follows: In vitro inhibition of ACC1 activity, ADP-Glo Kinase Analysis. The following applies: 1 nM ACC1, 10 μM acetyl-CoA, 20 μM ATP. Type of data set: biochemical. The source says:
ADP-Glo™ Kinase Analysis Kit (Promega) is used for the in vitro analysis of the inhibitory effect of the present compound on ACC1 or ACC2. ADP-Glo™ Kinase Analysis is a kinase detection analysis of luminescence method. ADP is produced in the process of catalyzing the substrate by ACC. ADP is converted into ATP which is then converted into light by Ultra-Glo™ luciferase. ADP is quantified by detecting the light signal, thus the enzyme activity can be measured by quantification of the ADP amount produced during the enzyme reaction. The analysis is carried out in two steps: in the first step, after the kinase reaction, a portion of ADP-Glo™ reagent equal in volume to the kinase reaction system is added to terminate the reaction and consume the remaining ATP; in the second step, a kinase detection reagent is added, which not only converts ADP into ATP, but also uses a coupled luciferase/luciferin reaction to detect newly synthesized ATP.
a. 10 mM compound stock solution (the present compound was dissolved in 100% DMSO to prepare the 10 mM stock solution) was diluted 50-fold to 200 μM with 100% DMSO, and then diluted in equal proportions (1:3) in a 96-well dilution plate (249944, Nunc). The gradient concentrations of the compound were 200 μM, 66.67 μM, 22.22 μM, 7.41 μM, 2.47 μM, 0.823 μM, 0.274 μM, 0.0914 μM, 0.0305 μM, 0.0102 μM, 0.00339 μM and 0.00113 μM.
b. 4.5 μL ACC1 working solution (BPS bioscience) (2.22 nM) was added to each well of a 384-well test plate (6007290, Perkin Elmer).
c. 0.5 μL of the serially diluted compound (prepared in step a) was added to each well of the 384-well test plate, which was centrifuged at 1000 rpm for 1 min and then incubated at room temperature for 15 min. The reaction system with compound GS-0976 at a final concentration of 0.1 μM was used as positive control; the reaction system with no compound but DMSO at a final concentration of 5% was used as negative control.
d. In the 384-well test plate (prepared in step c), 5 μL of the substrate working solution was added to each well to start the enzymatic reaction. The plate was centrifuged at 1000 rpm for 1 min and then incubated at room temperature for 30 min. The final concentration of each component in the ACC1 reaction system: 1 nM ACC1, 10 μM acetyl-CoA, 30 mM NaHCO3, and 20 μM ATP. The final concentration of each component in the ACC2 reaction system: 1.1 nM ACC2, 20 μM acetyl-CoA, 20 mM NaHCO3, and 15 μM ATP. Final concentrations of test compounds: 10 μM, 3.33 μM, 1.11 μM, 0.37 μM, 0.123 μM, 0.0411 μM, 0.0137 μM, 0.00457 μM, 0.00152 μM, 0.00051 μM, 0.00017 μM and 0.000056 μM. The final concentration of DMSO was 5% (v/v).
e. 10 μL of ADP-Glo reagent was added to each well of the 384-well test plate (prepared in step d), which was centrifuged at 1000 rpm for 1 min and then incubated at room temperature for 40 min.
f. 20 μL of kinase detection reagent was added to each well of the 384-well test plate (prepared in step e), which was centrifuged at 1000 rpm for 1 min and then incubated at room temperature for 40 min.
g. The chemiluminescence signal was detected with Perkin Elmer EnVision 2104.
ACC1 working solution and substrate working solution were both prepared with 1× kinase reaction buffer. The buffer was consisting of 50 mM HEPES buffer, 2 mM magnesium chloride, 0.01% BRIJ-35, 2 mM potassium citrate, 50 μg/mL BSA and 2 mM DTT.
The average value of the positive and negative control well and the standard deviation were calculated. The inhibition percentage was calculated according to the following formula: 100×[1−(compound−average value of positive control)/(average value of negative control-average value of positive control)].
IC50 of the compound was obtained using GraphPad Prism 6 software according to the following nonlinear fitting formula:
Y=Bottom+(Top−Bottom)/(1+10^((Log IC50−X)×Hillslope)), […]
Background: ADP-Glo turns the ADP formed in a reaction into a luminescent signal.

The next data set has as its system patients. The following applies: 10 patients, 20 mg orally once a day for 12 weeks; cited from earlier work.
Data set [1] relates to patients with non-alcoholic steatohepatitis (NASH). The following applies: cited from earlier work.

Here are results for 15 molecules from patent US20220041616A1, “SPIRO COMPOUND AND MEDICAL USES THEREOF” (The National Institutes of Pharmaceutical R&D Co., Ltd., priority 2018, published 2022).

The term IC50 denotes the concentration needed to halve the response being measured. Higher therefore signals lower potency.

A value given as a limit tells only on which side of the number the result lay.

`COc1ccccc1C(CN1C(=O)C2(CCC(C(=O)O)C2)C(=O)c2c1sc(-c1ncco1)c2C)OC1CCOCC1` (single isomer, unassigned) [Compound 5d, 7′-(2-(2-methoxyphenyl)-2-((tetrahydro-2H-pyran-4-yl)oxy)ethyl)-3′-methyl-2′-(oxazol-2-yl)-4′,6′-dioxo-6′,7′-dihydro-4′H-spiro[cyclopentane-1,5′-thieno[2,3-b]pyridine]-3-carboxylic Acid]: the IC50 on ACC1 is under 10 nM. Still for that read-out and setting: the value for `COc1ccccc1C(CN1C(=O)C2(CCC(C(=O)O)C2)C(=O)c2c1sc(-c1ncco1)c2C)OC1CCOCC1` (single isomer, unassigned) [Compound 5a, 7′-(2-(2-methoxyphenyl)-2-((tetrahydro-2H-pyran-4-yl)oxy)ethyl)-3′-methyl-2′-(oxazol-2-yl)-4′,6′-dioxo-6′,7′-dihydro-4′H-spiro[cyclopentane-1,5′-thieno[2,3-b]pyridine]-3-carboxylic Acid] was 10 to 100 nM.

At ACC1, `COc1ccccc1[C@H](CN1C(=O)C2(CCN(S(=O)(=O)O)CC2)C(=O)c2c1sc(-c1ncco1)c2C)OC1CCOCC1` [Compound 30] gave a half-maximal inhibitory concentration (IC50) of under 10 nM. `COc1ccccc1[C@H](CN1c2sc(-c3ncco3)c(C)c2C(=O)[C@]2(C[C@H](C(=O)OCC(=O)O)C2)C1=O)OC1CCOCC1` [Compound 16, 2-(((1s,3S)-7′-((R)-2-(2-methoxyphenyl)-2-((tetrahydro-2H-pyran-4-yl)oxy)ethyl)-3′-methyl-2′-(oxazol-2-yl)-4′,6′-dioxo-6′,7′-dihydro-4′H-spiro[cyclobutane-1,5′-thieno[2,3-b]pyridine]-3-carbonyl)oxy)acetic Acid]: the half-maximal inhibitory concentration (IC50) on ACC1 was under 10 nM. Same read-out and setting: the value for `COc1ccccc1[C@H](CN1c2sc(-c3ncco3)c(C)c2C(=O)[C@]2(C[C@H](C(=O)NC(C)(C)C(=O)O)C2)C1=O)OC1CCOCC1` [Compound 11, 2-((1s,3S)-7′-((R)-2-(2-methoxyphenyl)-2-((tetrahydro-2H-pyran-4-yl)oxy)ethyl)-3′-methyl-2′-(oxazol-2-yl)-4′,6′-dioxo-6′,7′-dihydro-4′H-spiro[cyclobutane-1,5′-thieno[2,3-b]pyridine]-3-carboxyamido)-2-methylpropionic Acid] was under 10 nM; that for `COc1ccccc1[C@H](CN1c2sc(-c3ncco3)c(C)c2C(=O)[C@]2(C[C@H](C(=O)N[C@H](C)C(=O)O)C2)C1=O)OC1CCOCC1` [Compound 14, ((1S,3S)-7′-((R)-2-(2-methoxyphenyl)-2-((tetrahydro-2H-pyran-4-yl)oxy)ethyl)-3′-methyl-2′-(oxazol-2-yl)-4′,6′-dioxo-6′,7′-dihydro-4′H-spiro[cyclobutane-1,5′-thieno[2,3-b]pyridine]-3-carbonyl)-D-alanine] was under 10 nM; that for `COc1ccccc1C(CN1C(=O)C2(CCC(C(=O)O)C2)C(=O)c2c1sc(-c1ncco1)c2C)OC1CCOCC1` (mixture of isomers) [Compound 5, 7′-(2-(2-methoxyphenyl)-2-((tetrahydro-2H-pyran-4-yl)oxy)ethyl)-3′-methyl-2′-(oxazol-2-yl)-4′,6′-dioxo-6′,7′-dihydro-4′H-spiro[cyclopentane-1,5′-thieno[2,3-b]pyridine]-3-carboxylic Acid] was under 10 nM. Same read-out and setting: the same measure for `COC(=O)CN(C)C(=O)[C@H]1C[C@@]2(C1)C(=O)c1c(sc(-c3ncco3)c1C)N(C[C@H](OC1CCOCC1)c1ccccc1OC)C2=O` [Compound 15-1, Methyl N-((1s,3S)-7′-((R)-2-(2-methoxyphenyl)-2-((tetrahydro-2H-pyran-4-yl)oxy)ethyl)-3′-methyl-2′-(oxazol-2-yl)-4′,6′-dioxo-6′,7′-dihydro-4′H-spiro[cyclobutane-1,5′-thieno[2,3-b]pyridine]-3-carbonyl)-N-methylglycinate]: under 10 nM. Same read-out and setting: the value for `COc1ccccc1[C@H](CN1c2sc(-c3ncco3)c(C)c2C(=O)[C@]2(C[C@H](C(=O)NCC(=O)O)C2)C1=O)OC1CCOCC1` [Compound 10, ((1s,3S)-7′-((R)-2-(2-methoxyphenyl)-2-((tetrahydro-2H-pyran-4-yl)oxy)ethyl)-3′-methyl-2′-(oxazol-2-yl)-4′,6′-dioxo-6′,7′-dihydro-4′H-spiro[cyclobutane-1,5′-thieno[2,3-b]pyridine]-3-carbonyl)glycine] was under 10 nM; that for `Cc1c(-c2ncco2)sc2c1C(=O)C1(CCC(C(=O)O)CC1)C(=O)N2CC(OC1CCOCC1)c1ccccc1` (mixture of isomers) [Compound 6, 3′-methyl-2′-(oxazol-2-yl)-4′,6′-dioxo-7′-(2-phenyl-2-((tetrahydro-2H-pyran-4-yl)oxy)ethyl)-6′,7′-dihydro-4′H-spiro[cyclohexane-1,5′-thieno[2,3-b]pyridine]-4-carboxylic acid] was 100 to 500 nM; that for `COc1ccccc1[C@H](CN1c2sc(-c3ncco3)c(C)c2C(=O)[C@]2(C[C@H](C(=O)N(C)C)C2)C1=O)OC1CCOCC1` [Compound 12] was under 10 nM. In the case of `COc1ccccc1[C@H](CN1C(=O)C2(CCNCC2)C(=O)c2c1sc(-c1ncco1)c2C)OC1CCOCC1` [Compound 21, (R)-7′-(2-(2-methoxyphenyl)-2-((tetrahydro-2H-pyran-4-yl)oxy)ethyl)-3′-methyl-2′-(oxazol-2-yl)-4′H-spiro[piperidine-4,5′-thieno[2,3-d]pyridine]-4′,6′(7′H)-dione], the IC50 at ACC1 is under 10 nM. At ACC1, “7′-(2-(2-methoxyphenyl)-2-((tetrahydro-2H-pyran-4-yl)oxy)ethyl)-3′-methyl-2′-(oxazol-2-yl)-4′,6′-dioxo-6′,7′-dihydro-4′H-spiro[cyclohexane-1,5′-thieno[2,3-b]pyridine]-3-carboxylic Acid [Compound 7a]” returned an IC50 of over 500 nM. Still for that read-out and setting: the value for `COc1ccccc1C(CN1C(=O)C2(CCC(C(=O)O)C2)C(=O)c2c1sc(-c1ncco1)c2C)OC1CCOCC1` (single isomer, unassigned) [Compound 5c, 7′-(2-(2-methoxyphenyl)-2-((tetrahydro-2H-pyran-4-yl)oxy)ethyl)-3′-methyl-2′-(oxazol-2-yl)-4′,6′-dioxo-6′,7′-dihydro-4′H-spiro[cyclopentane-1,5′-thieno[2,3-b]pyridine]-3-carboxylic Acid] was under 10 nM.

For the molecule `COc1ccccc1[C@H](Cn1c(=O)n(C(C)(C)C(=O)O)c(=O)c2c(C)c(-c3ncco3)sc21)OC1CCOCC1` [GS-0976], in the data set with patients, the “liver fat content and non-invasive fibrosis markers” value is reported as “statistically significant improvements”. For the same molecule, in data set [1] (12th week, MRI-PDFF), the “relative decrease of liver fat content” value is on record as 43%. Also, the “median cirrhosis, non-invasive marker of fibrosis, by magnetic resonance elastography (MRE)” value in data set [1] (12th week, baseline 3.4 kPa, p=0.049) was 3.1 kPa. Moreover, the “liver fat content measured by MRI-PDFF” value in data set [1] (12th week, baseline 15.7%, p=0.006) is recorded as 9.0%. For the same molecule, the “decrease of the amount of denovo fat synthesis from the baseline level, median” value in data set [1] (after 12 weeks) is 29%. Further, in data set [1] (most common adverse events nausea, abdominal pain and diarrhea), the tolerability entry was “well tolerated”.
